How the values were obtained:
Assay type in all cases: in vivo
[1] = test system: twospotted spider mite (Tetranychus urticae [Koch]); assay: Foliar leaf-dip test against twospotted spider mite on pinto bean plants; settings: technical, 96 h
Description: (§1) Candidate insecticide compositions were evaluated for activity in foliar evaluations against tobacco budworm (Heliothis virescens [Fabricius]), Colorado potato beetle (Leptinotarsa decemlineata [Say]), corn earworm (Helicoverpa zea [Boddie]), cotton aphid (Aphis gossypii [Glover]) and twospotted spider mite (Tetranychus urticae [Koch]). Each test included controls in which the formulation or test solution minus the active ingredients were applied.
In tests against twospotted spider mites, the leaves of potted 3 to 4 inch tall pinto bean plants (Phaseolus vulgaris) were infested with about 50 to 75 adult twospotted spider mites by placing leaf cuttings from a twospotted spider mite colony host pinto bean plant on the upper surface of the test plant leaves. After about 1 hour the newly infested pinto bean leaves were dipped into the test solutions of the test formulations to provide application rates as high as 1000 ppm of the active ingredients. The test formulations were dissolved in, and diluted as necessary, with distilled water containing 10% acetone and 0.25% of a non-ionic detergent [an octylphenolpoly(ethyleneglycolether)x, available from Roche Applied Science as Triton X-100] to the proper concentrations. The treated plants were transferred to a hood where they were kept until the leaves had dried. Once dry, the potted plants were placed into a tray containing at least one inch of water. The plants were spaced far enough apart to prevent the mites from moving between plants. The trays were held in a growth chamber for 96 hours at 25° C., 50% relative humidity and a photoperiod of 14 hours light/10 hours dark. For tests in which the active ingredients were not formulated, i.e. the technical active ingredient was used; a stock solution of the test compound was made. For example, a 100 ppm stock solution may be made by dissolving 4 milligrams of the test compound in 4 mL of acetone and adding the solution to 36 mL of an aqueous Triton X-100 solution (one drop of Triton X-100 dissolved in 100 mL of distilled water). Further dilutions can be made by adding distilled water containing 10% acetone and 0.25% of Triton X-100.
At the end of the 96 hour exposure period the numbers of dead and live insects were counted. […] Using the insect counts, the activity of the test chemical was expressed in percent control. Percent control is derived from the total number of dead insects (TD) compared to the total number of insects (TI) in the test: […]

[2] = test system: corn earworm (Helicoverpa zea [Boddie]); assay: Cotton leaf-disc dip test against corn earworm; settings: technical, 96 h
Description: as §1
In tests against corn earworm, one inch diameter leaf discs cut from cotton plant leaves (Gossypium hirsutum) were dipped into the test solutions of the test formulations to provide application rates as high as 1000 ppm of the active ingredients. The test formulations were dissolved in distilled water containing 10% acetone and 0.25% of a non-ionic detergent [an octylphenolpoly(ethyleneglycolether)x, available from Roche Applied Science as Triton X-100] to the proper concentrations. Cotton wicks, 0.5 inch diameter by 2 inches long, were soaked with distilled water and placed into the wells of a 32 well rearing tray (available as Rearing Tray Bio-Fit 32, from C-D International, Pittman, N.J.), one wick per well. Treated leaf discs were placed on top of the cotton wicks, one leaf disc per wick, and the rearing tray was transferred to a hood where they were kept until the leaf discs had dried. Each disc was infested with 1 late second to early third instar corn earworm, replicated sixteen times per rate of application, and a lid was placed on the rearing tray. The rearing trays were held in a growth chamber for 96 hours at 25° C., 50% relative humidity and a photoperiod of 12 hours light/12 hours dark. For tests in which the active ingredients were not formulated, i.e. the technical active ingredient was used; a stock solution of the test compound was made. For example, a 100 ppm stock solution may be made by dissolving 4 milligrams of the test compound in 4 mL of acetone and adding the solution to 36 mL of an aqueous Triton X-100 solution (one drop of Triton X-100 dissolved in 100 mL of distilled water). Further dilutions can be made by adding distilled water containing 10% acetone and 0.25% of Triton X-100.
At the end of the 96 hour exposure period, the rearing tray was opened, and the numbers of dead and live insects were counted. […] Using the insect counts, the activity of the test chemical was expressed in percent control. Percent control is derived from the total number of dead insects (TD) compared to the total number of insects (TI) in the test: […]

[3] = test system: cotton aphid (Aphis gossypii [Glover]); assay: Foliar leaf-dip test against cotton aphid on tomato plants; settings: technical, 72 h
Description: as §1
In tests against cotton aphid, the leaves of 6 to 8 inch tall tomato plants (Lycopersicon lycoper) were infested with about 50 cotton aphids by placing leaf cuttings from a cotton aphid colony host tomato plant. After about 12 hours the newly infested tomato leaves were dipped into the test solutions of the test formulations to provide application rates as high as 1000 ppm of the active ingredients. The test formulations were dissolved in, and diluted as necessary, with distilled water containing 10% acetone and 0.25% of a non-ionic detergent [an octylphenolpoly(ethyleneglycolether)x, available from Roche Applied Science as Triton X-1001 to the proper concentrations. After treatment, a square of parafilm was placed around the stem of each test plant, covering the soil of each pot in order to catch dead aphids that fall from the leaves. The treated plants were transferred to a hood where they were kept until the leaves had dried. Once dry, the potted plants were placed into a tray containing at least one inch of water. The plants were spaced far enough apart to prevent the aphids from moving between plants. The trays were held in a growth chamber for 72 hours at 25° C., 50% relative humidity and a photoperiod of 14 hours light/10 hours dark. For tests in which the active ingredients were not formulated, i.e. the technical active ingredient was used; a stock solution of the test compound was made. For example, a 100 ppm stock solution may be made by dissolving 4 milligrams of the test compound in 4 mL of acetone and adding the solution to 36 mL of an aqueous Triton X-100 solution (one drop of Triton X-100 dissolved in 100 mL of distilled water). Further dilutions can be made by adding distilled water containing 10% acetone and 0.25% of Triton X-100.
At the end of the 72 hour exposure period the numbers of dead and live insects were counted. Insects were classified as “dead” if they were off-color or brown and desiccated. Using the insect counts, the activity of the test chemical was expressed in percent control. Percent control is derived from the total number of dead insects (TD) compared to the total number of insects (TI) in the test: […]

[4] = test system: Colorado potato beetle (Leptinotarsa decemlineata [Say]); assay: Foliar leaf-dip test against adult Colorado potato beetle on tomato plants; settings: technical, 72 h
Description: as §1
In tests against adult Colorado potato beetle, the leaves of 6-8 inch tall tomato plants (Lycopersicon lycoper) were dipped into the test solutions of the test formulations to provide application rates as high as 1000 ppm of the active ingredients. The test formulations were dissolved in distilled water containing 10% acetone and 0.25% of a non-ionic detergent [an octylphenolpoly(ethyleneglycolether)x, available from Roche Applied Science as Triton X-100] to the proper concentrations. The treated plants were transferred to a hood where they were kept until the leaves had dried. For tests in which the active ingredients were not formulated, i.e. the technical active ingredient was used; a stock solution of the test compound was made. For example, a 100 ppm stock solution may be made by dissolving 4 milligrams of the test compound in 4 mL of acetone and adding the solution to 36 mL of an aqueous Triton X-100 solution (one drop of Triton X-100 dissolved in 100 mL of distilled water). Further dilutions can be made by adding distilled water containing 10% acetone and 0.25% of Triton X-100.
The treated tomato plants were removed from their pots by cutting the stems just above the soil line. Each excised plant was placed into an individual 8-ounce paper cup. Ten adult Colorado potato beetles were placed into each paper cup, taking care not to cause injury. An opaque plastic lid was placed on each cup, for a 72 hour exposure period and held at 25° C., 50% relative humidity with a photo-period of 12 hours light and 12 hours dark. At the end of the 72 hour exposure period, the cups were opened, and the numbers of dead and live insects were counted. Using the insect counts, the activity of the test chemical was expressed in percent control. Percent control is derived from the total number of dead insects (TD) compared to the total number of insects (TI) in the test: […]

[5] = cyano-pyrethroid 10.0 ppm alone (bifenthrin 0 ppm)
[6] = cyano-pyrethroid 30.0 ppm alone (bifenthrin 0 ppm)
[7] = cyano-pyrethroid 100.0 ppm alone (bifenthrin 0 ppm)
[8] = cyano-pyrethroid 0.3 ppm alone (bifenthrin 0.0 ppm)
[9] = cyano-pyrethroid 1.0 ppm alone (bifenthrin 0.0 ppm)
[10] = cyano-pyrethroid 3.0 ppm alone (bifenthrin 0.0 ppm)
[11] = cyano-pyrethroid 10.0 ppm alone (bifenthrin 0.0 ppm)
[12] = cyano-pyrethroid 0.3 ppm alone (bifenthrin 0 ppm)
[13] = cyano-pyrethroid 1.0 ppm alone (bifenthrin 0 ppm)
[14] = cyano-pyrethroid 3.0 ppm alone (bifenthrin 0 ppm)
[15] = cyano-pyrethroid 200.0 ppm alone (bifenthrin 0 ppm)

| SMILES | % Mortality Twospotted Spider Mite [1, 5] [%] | % Mortality Twospotted Spider Mite [1, 6] [%] | % Mortality Twospotted Spider Mite ([1]; cyano-pyrethroid 60.0 ppm alone (bifenthrin 0 ppm)) [%] | % Mortality Twospotted Spider Mite [1, 7] [%] | % Mortality Corn Earworm [2, 8] [%] | % Mortality Corn Earworm [2, 9] [%] | % Mortality Corn Earworm [2, 10] [%] | % Mortality Corn Earworm [2, 11] [%] | % Mortality Cotton Aphid [3, 5] [%] | % Mortality Cotton Aphid [3, 6] [%] | % Mortality Cotton Aphid [3, 7] [%] | % Mortality Adult Colorado Potato Beetle [4, 12] [%] | % Mortality Adult Colorado Potato Beetle [4, 13] [%] | % Mortality Adult Colorado Potato Beetle [4, 14] [%] | % Mortality Adult Colorado Potato Beetle [4, 5] [%] | % Mortality Twospotted Spider Mite [1, 15] [%] | % Mortality Cotton Aphid [3, 15] [%] |
| --- | --- | --- | --- | --- | --- | --- | --- | --- | --- | --- | --- | --- | --- | --- | --- | --- | --- |
| CC1(C)C(C=C(Cl)Cl)C1C(=O)OC(C#N)c1ccc(F)c(Oc2ccccc2)c1 (racemic) [cyfluthrin, (RS)-α-cyano-4-fluoro-3-phenoxybenzyl (1RS)-cis-trans-3-(2,2-dichlorovinyl)-2,2-dimethylcyclopropanecarboxylate] | 14 | 17 | 23 | 11 | 13 | 69 | 100 | 100 | 4 | 6 | 9 | 10 | 70 | 80 | 100 | – | – |
| CC1(C)C(C=C(Cl)Cl)C1C(=O)OC(C#N)c1cccc(Oc2ccccc2)c1 (racemic) [alpha-cypermethrin, (S)-α-cyano-3-phenoxybenzyl (1R)-cis-3-(2,2-dichlorovinyl)-2,2-dimethylcyclopropanecarboxylate and (R)-α-cyano-3-phenoxybenzyl (1S)-cis-3-(2,2-dichlorovinyl)-2,2-dimethylcyclopropanecarboxylate] | 8 | 8 | – | 16 | 6 | 63 | 100 | 100 | – | 7 | 3 | 30 | 70 | 100 | 100 | 32 | 7 |
| CC(C)[C@H](C(=O)O[C@H](C#N)c1cccc(Oc2ccccc2)c1)c1ccc(Cl)cc1 [esfenvalerate, (S)-α-cyano-3-phenoxybenzyl (S)-2-(4-chlorophenyl)-3-methylbutyrate] | 21 | 25 | – | 71 | 0 | 0 | 13 | 50 | – | 38 | 14 | 0 | 0 | 5 | 95 | 91 | 15 |
